In US20140194388A1, “COMBINATION THERAPY OF HSP90 INHIBITORY COMPOUNDS WITH CHK INHIBITORS” (SYNTA PHARMACEUTICALS CORP., priority 2011, published 2014):

Legend:
B-raf = settings: cited from earlier work
CHK1 = experiment: Western blotting, CHK1 level / CHK activity after ganetespib (FIG. 1); assay type: cell-based, human
Procedure: (§1) The LNCaP, 22Rv1, DU145 and PC3 human prostate cancer cell lines were all purchased from the American Type Culture Collection (Manassas, Va., USA). Cells were maintained and cultured according to standard techniques at 37° C. in 5% (v/v) CO2 using culture medium recommended by the supplier. All primary antibodies were purchased from Cell Signaling Technology (Beverly, Mass., USA) with the exception of RAF1 (Santa Cruz Biotechnology, Santa Cruz, Calif., USA), p-EGFR (Tyr1068) (Invitrogen, Carlsbad, Calif., USA) and actin (GE Healthcare, UK). The Hsp90 inhibitors ganetespib and 17-AAG were synthesized at Synta Pharmaceuticals Corp.
(§2) Prostate cancer cell lines were lysed in RIPA buffer (Cell Signaling Technology, Beverly, Mass. USA). Lysates were clarified by centrifugation and equal amounts of protein resolved by SDS-PAGE before transfer to nitrocellulose membranes. Membranes were blocked with 5% skim milk in TBS with 0.5% Tween and immunoblotted with indicated antibodies. Antigen-antibody complexes were visualized using an Odyssey system (LI-COR, Lincoln, Nebr., USA).

CDK1 = experiment: Western blotting, CDK1 level after ganetespib (FIG. 1); assay type: cell-based, human
Procedure: as §1, §2

C=CCNC1=C2C[C@@H](C)C[C@H](OC)[C@H](O)[C@@H](C)/C=C(\C)[C@H](OC(N)=O)[C@@H](OC)/C=C\C=C(/C)C(=O)NC(=CC1=O)C2=O [Compound 17AAG]
degradation of B-raf (B-raf; cancer cells treated with 17AAG): stimulate the degradation of B-raf
sensitivity of B-raf mutants E586K and L597V to degradation (B-raf; cells treated with 17AAG): not sensitive to degradation
rate of B-raf degradation, V600E mutant vs wild type (B-raf; melanoma cell line A375 (V600E) vs CHL cells (wild type B-raf)): degraded more rapidly than in CHL cells
rate of degradation of B-raf mutants V600D, G469A, G469E, G596R, G466V, G594V (B-raf; transvected into COS cells): degraded more rapidly than wild type B-raf

CC(C)c1cc(-c2nnc(O)n2-c2ccc3c(ccn3C)c2)c(O)cc1O [ganetespib, 3-(2,4-DIHYDROXY- 5-ISOPROPYL- PHENYL)-4-(1- METHYL-INDOL- 5-YL)-5- HYDROXY- [1,2,4]TRIAZOLE]
disruption of CHK activity by inhibition of Hsp90 activity (CHK1): highly effective in disrupting CHK activity
effect on stability of the DNA damage checkpoint CHK1 (CHK1; FIG. 1): destabilizes
effect on stability of the master cell cycle regulator CDK1 (CDK1): destabilizes
